Measurements published in patent US20260256775A1, “METHOD FOR TREATING MENTAL DISEASES” (SHANGHAI RAISING PHARMACEUTICAL CO., LTD., priority 2022, published 2026).

Key:
[1] = system: Chronic Unpredictable Mild Stress (CUMS) Depressive Rats; test: Forced swimming test (FST) in CUMS model rats; conditions: 8th week of CUMS, 6-minute forced swimming, trazodone 10 mg/kg/day ig, x ± SD
[2] = system: Chronic Unpredictable Mild Stress (CUMS) Depressive Rats; test: Sucrose preference test (SPT) in CUMS model rats; conditions: trazodone 10 mg/kg/day ig, x ± SD; for SPT After 2 Weeks of Treatment (%): 5th week of CUMS; for SPT After 4 Weeks of Treatment (%): 7th week of CUMS
[3] = system: Chronic Unpredictable Mild Stress (CUMS) Depressive Rats; test: Elevated plus maze (EPM) test in CUMS model rats; conditions: 9th week of CUMS, 5-minute EPM, trazodone 10 mg/kg/day ig, x ± SD

With O=c1n(CCCN2CCN(c3cccc(Cl)c3)CC2)nc2ccccn12 [Trazodone] the “Immobility Time in FST After 5 Weeks of Treatment (s)” value ([1]; n=8) was 82.28 ± 21.64 ^ s, the “Immobility Time in FST After 5 Weeks of Treatment (s)” value ([1]; n=8, listed as trazodone) was “reduced” and the “SPT After 2 Weeks of Treatment (%)” value ([2]; n=8) was 74.00 ± 11.22%. For the same compound, the “SPT After 2 Weeks of Treatment (%)” value ([2]; n=8, listed as trazodone) was “no significant difference”, the “SPT After 4 Weeks of Treatment (%)” value ([2]; n=8) was 84.55 ± 16.77 ^ % and the “SPT After 4 Weeks of Treatment (%)” value ([2]; n=8, listed as trazodone) was “significantly increased”. For the same compound, the “Time Spent Exploring the Open Arms in the 6th Week of Treatment (s)” value ([3]; n=8) was 4.90 ± 2.06 ^ s and the “Time Spent Exploring the Open Arms in the 6th Week of Treatment (s)” value ([3]; n=8, listed as trazodone) was “no significant change”.
